Measurements reported in patent publication US12448389B2, “BRM targeting compounds and associated methods of use” (Prelude Therapeutics Incorporated, priority 2020, dated 2025).

Key:
SMARCA2-HiBiT = molecular target: T1, SMARCA2-HiBiT (Homo sapiens, UniProt P51531); assay: SMARCA2 HiBiT degradation assay in HeLa cells; format: cell-based; conditions: 18 hours incubation; for DC50: read-out: HeLa_HiBit-SM2 DC50; for Dmax: HeLa, read-out: HeLa-HiBit-SM2 Dmax (%)
T1 construct: SMARCA2-HiBiT knock-in Hela monoclonal cell (CS302366); host or cells: HeLa monoclonal knock-in line (CRISPR HiBiT knock-in at the endogenous locus, heterozygous)
Summary of the method: (§1)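 HeLa monoclonal lines with heterozygous HiBiT knock-in were seeded at 2500 cells/well in EMEM with 10% FBS and treated with compound for 18 h at 37 °C. Remaining tagged protein was measured by Nano-Glo HiBiT lytic luminescence after 30–60 min at RT, and values came from curve fitting.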

SMARCA4-HiBiT = molecular target: T2, SMARCA4-HiBiT (Homo sapiens, UniProt P51532); assay: SMARCA4 HiBiT degradation assay in HeLa cells; format: cell-based; conditions: 18 hours incubation; for DC50: read-out: HeLa-HiBit-SM4 DC50; for Dmax: HeLa, read-out: HeLa-HiBit-SM4 Dmax (%)
T2 construct: SMARCA4-HiBiT knock-in Hela monoclonal cell (CS3023226); host or cells: HeLa monoclonal knock-in line (CRISPR HiBiT knock-in at the endogenous locus, heterozygous)
Summary of the method: as §1

T2 sequence (P51532 whole entry): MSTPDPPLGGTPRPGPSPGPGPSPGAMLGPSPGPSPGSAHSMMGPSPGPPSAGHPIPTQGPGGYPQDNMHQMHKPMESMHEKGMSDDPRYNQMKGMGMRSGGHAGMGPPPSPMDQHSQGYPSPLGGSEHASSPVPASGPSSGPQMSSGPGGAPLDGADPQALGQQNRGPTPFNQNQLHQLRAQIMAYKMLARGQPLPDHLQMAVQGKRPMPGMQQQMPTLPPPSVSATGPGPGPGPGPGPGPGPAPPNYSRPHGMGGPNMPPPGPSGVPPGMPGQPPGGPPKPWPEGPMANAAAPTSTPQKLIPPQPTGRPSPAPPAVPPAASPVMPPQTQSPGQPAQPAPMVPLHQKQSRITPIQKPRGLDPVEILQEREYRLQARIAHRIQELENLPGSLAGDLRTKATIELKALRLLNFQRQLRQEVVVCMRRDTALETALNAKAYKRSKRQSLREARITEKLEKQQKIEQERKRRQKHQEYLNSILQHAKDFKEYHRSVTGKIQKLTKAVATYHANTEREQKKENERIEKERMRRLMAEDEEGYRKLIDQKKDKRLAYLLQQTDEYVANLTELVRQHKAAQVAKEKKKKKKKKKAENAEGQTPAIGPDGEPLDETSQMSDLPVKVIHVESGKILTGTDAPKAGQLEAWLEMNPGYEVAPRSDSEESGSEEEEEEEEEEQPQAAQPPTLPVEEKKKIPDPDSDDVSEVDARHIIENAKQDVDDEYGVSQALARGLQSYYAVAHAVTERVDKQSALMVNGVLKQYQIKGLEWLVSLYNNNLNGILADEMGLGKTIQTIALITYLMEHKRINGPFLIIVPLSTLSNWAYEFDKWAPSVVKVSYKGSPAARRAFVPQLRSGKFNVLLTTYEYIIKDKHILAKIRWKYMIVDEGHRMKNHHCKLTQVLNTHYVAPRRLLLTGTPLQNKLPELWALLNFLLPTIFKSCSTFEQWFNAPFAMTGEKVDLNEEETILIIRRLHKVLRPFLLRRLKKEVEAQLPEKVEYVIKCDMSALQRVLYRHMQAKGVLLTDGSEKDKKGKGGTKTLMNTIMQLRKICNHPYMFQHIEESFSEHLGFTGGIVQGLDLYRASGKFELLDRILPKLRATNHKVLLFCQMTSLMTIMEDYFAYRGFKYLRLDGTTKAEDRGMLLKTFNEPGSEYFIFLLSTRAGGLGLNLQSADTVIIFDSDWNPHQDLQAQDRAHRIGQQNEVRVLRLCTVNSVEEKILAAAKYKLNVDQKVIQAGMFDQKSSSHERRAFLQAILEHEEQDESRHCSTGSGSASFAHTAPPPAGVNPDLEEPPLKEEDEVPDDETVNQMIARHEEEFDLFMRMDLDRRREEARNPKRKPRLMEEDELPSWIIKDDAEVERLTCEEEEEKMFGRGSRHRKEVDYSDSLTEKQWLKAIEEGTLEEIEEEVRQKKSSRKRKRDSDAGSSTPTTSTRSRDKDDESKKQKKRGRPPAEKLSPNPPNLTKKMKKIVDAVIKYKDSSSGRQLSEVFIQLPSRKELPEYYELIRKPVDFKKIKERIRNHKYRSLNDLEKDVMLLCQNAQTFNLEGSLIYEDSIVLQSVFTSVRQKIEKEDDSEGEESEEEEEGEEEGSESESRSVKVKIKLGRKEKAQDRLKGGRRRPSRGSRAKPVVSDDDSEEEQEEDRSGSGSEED
T1 sequence (P51531 whole entry): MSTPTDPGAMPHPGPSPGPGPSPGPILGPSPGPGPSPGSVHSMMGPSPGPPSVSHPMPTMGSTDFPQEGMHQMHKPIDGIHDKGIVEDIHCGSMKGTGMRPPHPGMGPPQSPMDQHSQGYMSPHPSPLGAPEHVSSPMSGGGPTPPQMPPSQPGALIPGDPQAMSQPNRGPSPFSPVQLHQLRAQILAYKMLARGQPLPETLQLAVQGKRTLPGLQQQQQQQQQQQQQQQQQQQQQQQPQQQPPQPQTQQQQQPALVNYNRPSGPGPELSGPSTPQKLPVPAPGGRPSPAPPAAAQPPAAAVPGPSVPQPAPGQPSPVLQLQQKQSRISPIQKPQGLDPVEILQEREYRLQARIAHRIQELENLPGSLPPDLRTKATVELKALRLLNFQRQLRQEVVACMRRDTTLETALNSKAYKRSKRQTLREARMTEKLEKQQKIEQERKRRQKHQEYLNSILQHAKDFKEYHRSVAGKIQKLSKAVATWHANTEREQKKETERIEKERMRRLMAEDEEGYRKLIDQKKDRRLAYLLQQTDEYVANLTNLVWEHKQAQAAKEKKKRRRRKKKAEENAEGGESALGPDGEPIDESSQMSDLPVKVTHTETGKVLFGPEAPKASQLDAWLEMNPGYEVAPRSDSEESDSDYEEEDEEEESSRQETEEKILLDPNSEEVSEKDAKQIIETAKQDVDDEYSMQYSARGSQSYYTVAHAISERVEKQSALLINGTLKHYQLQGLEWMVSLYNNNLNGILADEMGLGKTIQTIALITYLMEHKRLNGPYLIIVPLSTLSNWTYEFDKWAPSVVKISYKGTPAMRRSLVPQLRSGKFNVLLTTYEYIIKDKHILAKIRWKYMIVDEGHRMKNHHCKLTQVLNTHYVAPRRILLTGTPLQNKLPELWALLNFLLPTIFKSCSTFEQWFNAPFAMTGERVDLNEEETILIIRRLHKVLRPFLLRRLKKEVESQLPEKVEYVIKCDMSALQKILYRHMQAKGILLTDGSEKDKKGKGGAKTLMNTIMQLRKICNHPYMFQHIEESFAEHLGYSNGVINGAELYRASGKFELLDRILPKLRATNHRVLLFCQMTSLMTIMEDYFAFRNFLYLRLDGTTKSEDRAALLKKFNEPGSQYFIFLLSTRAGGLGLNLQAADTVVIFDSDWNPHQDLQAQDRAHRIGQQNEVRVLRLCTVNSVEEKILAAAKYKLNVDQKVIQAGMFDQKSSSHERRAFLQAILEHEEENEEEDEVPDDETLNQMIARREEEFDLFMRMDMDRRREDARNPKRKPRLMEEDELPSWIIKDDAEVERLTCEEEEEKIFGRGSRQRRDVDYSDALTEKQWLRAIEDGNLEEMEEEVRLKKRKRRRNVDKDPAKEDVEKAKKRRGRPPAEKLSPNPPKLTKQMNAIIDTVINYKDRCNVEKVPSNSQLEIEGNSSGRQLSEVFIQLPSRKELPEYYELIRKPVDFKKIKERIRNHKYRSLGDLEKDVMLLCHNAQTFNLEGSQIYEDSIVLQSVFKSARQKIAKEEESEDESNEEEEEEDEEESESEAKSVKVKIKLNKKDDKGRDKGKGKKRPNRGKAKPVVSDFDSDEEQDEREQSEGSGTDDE

Compound	DC50 (SMARCA2-HiBiT) [nM]	Dmax (SMARCA2-HiBiT) [%]	DC50 (SMARCA4-HiBiT) [nM]	Dmax (SMARCA4-HiBiT) [%]
O=C1CCC(N2C(=O)c3ccc(N4CCC(CN5CCC6C(C5)C6CN5CCN6c7cc(-c8ccccc8O)nnc7NC[C@H]6C5)CC4)cc3C2=O)C(=O)N1 (stereo partly drawn) [Example 46, 2-(2,6-dioxopiperidin-3-yl)-5-(4-((7-(((S)-2-(2-hydroxyphenyl)-5,6,6a,7,9,10-hexahydro-8H-pyrazino[1′,2′:4,5]pyrazino[2,3-c]pyridazin-8-yl)methyl)-3-azabicyclo[4.1,0]heptan-3-yl)methyl)piperidin-1-yl)isoindoline-1,3-dione]	< 10	> 85	< 10	> 85
O=C1CC[C@@H](N2Cc3cc(OCCN4CCC(N5CCN6c7cc(-c8ccccc8O)nnc7NC[C@H]6C5)CC4)ccc3C2=O)C(=O)N1 [Example 239, (R)-3-(5-(2-(4-((S)-2-(2-hydroxyphenyl)-5,6,6a,7,9,10-hexahydro-8H-pyrazino[1′,2′:4,5]pyrazino[2,3-c]pyridazin-8-yl)piperidin-1-yl)ethoxy)-1-oxoisoindolin-2-yl)piperidine-2,6-dione]	< 10	> 85	< 10	50 to 75
CC1CN(CC2CCN(c3ccc4c(c3)C(=O)N(C3CCC(=O)NC3=O)C4=O)CC2)CC(C)N1C(=O)N1CCN2c3cc(-c4ccccc4O)nnc3NC[C@H]2C1 (stereo partly drawn) [Example 273, 2-(2,6-dioxopiperidin-3-yl)-5-(4-((4-((S)-2-(2-hydroxyphenyl)-6,6a,7,8,9,10-hexahydro-5H-pyrazino[1′,2′:4,5]pyrazino[2,3-c]pyridazine-8-carbonyl)-3,5-dimethylpiperazin-1-yl)methyl)piperidin-1-yl)isoindoline-1,3-dione]	< 10	> 85	< 10	75 to 85
O=C1CCC(N2C(=O)c3ccc(N4CC[C@H](CN5C[C@@H]6[C@H](C5)[C@H]6CN5CCN6c7cc(-c8c(O)cccc8F)nnc7NC[C@H]6C5)[C@@H](F)C4)cc3C2=O)C(=O)N1 (stereo partly drawn) [Example 281, 2-(2,6-dioxopiperidin-3-yl)-5-((3R,4R)-3-fluoro-4-(((1R,5S,6R)-6-(((S)-2-(2-fluoro-6-hydroxyphenyl)-5,6,6a,7,9,10-hexahydro-8H-pyrazino[1′,2′:4,5]pyrazino[2,3-c]pyridazin-8-yl)methyl)-3-azabicyclo[3.1.0]hexan-3-yl)methyl)piperidin-1-yl) isoindoline-1,3-dione]	< 10	75 to 85	10 to 100	≤ 50
CN(C1CCN(CC2CCN(c3ccc4c(c3)C(=O)N(C3CCC(=O)NC3=O)C4=O)CC2)CC1)C1C[C@@H]2CNc3nnc(-c4ccccc4O)cc3N2C1 (stereo partly drawn) [Example 29, 2-(2,6-dioxopiperidin-3-yl)-5-(4-((4-(((6aR)-2-(2-hydroxyphenyl)-5,6,6a,7,8,9-hexahydropyrrolo[1′,2′:4,5]pyrazino[2,3-c]pyridazin-8-yl)(methyl)amino)piperidin-1-yl)methyl)piperidin-1-yl) isoindoline-1,3-dione]	< 10	> 85	< 10	> 85
CCC1CN(CC2CCN(c3ccc4c(c3)C(=O)N(C3CCC(=O)NC3=O)C4)CC2)CCN1C(=O)N1CCN2c3cc(-c4ccccc4O)nnc3NC[C@H]2C1 (stereo partly drawn) [Example 270, 3-(6-(4-((3-ethyl-4-((S)-2-(2-hydroxyphenyl)-6,6a,7,8,9,10-hexahydro-5H-pyrazino[1′,2′:4,5]pyrazino[2,3-c]pyridazine-8-carbonyl)piperazin-1-yl)methyl)piperidin-1-yl)-1-oxoisoindolin-2-yl)piperidine-2,6-dione]	< 10	> 85	< 10	> 85
